Each block holds one compound with its values, some of them ahead of it.
Legend:
[1] = mouse, in vivo
colon epithelium = assay: Epithelial proliferation in the colon by flow cytometry using Ki67; type: in vivo; details: mice, drug in drinking water 8 days; control 21%
Experimental: Toxicity studies and histology. […] The body weight was measured daily. After 8 days the animals were sacrificed and the epithelial proliferation in the colon was measured by flow cytometry using Ki67. Box plots show median and whiskers are min and max values. The p values were generated using a one-way ANOVA with Dunnett's multiple comparisons test. For FIGS. 5A and 5C, n=5.

PDE5 = biological target: T1, PDE5 (Homo sapiens, UniProt O76074); assay: Reporter cell assay: LS-174T cells expressing PKG2 and PDE5, low-dose linaclotide, phospho-VASP Western blot; type: cell-based; details: LS-174T reporter cells
T1 construct: host or cells: LS-174T colon cancer reporter cell line
Description: Results shown are representative of at least 3 independent experiments.
Western blot and reporter cell lines. […] Results shown are representative of at least 3 independent experiments.

entry from the gut into plasma, dose curve [1]: increased dramatically in the plasma
Compound: CCCc1nn(C)c2c(=O)[nH]c(-c3cc(S(=O)(=O)N4CCNCC4)ccc3OCC)nc12 [desmethyl-sildenafil, reference compound]

Compound: CCCc1nn(C)c2c(=O)[nH]c(-c3cc(S(=O)(=O)N4CCN(C)CC4)ccc3OCC)nc12 [sildenafil, reference compound]
total Ki67 positive cells in colon epithelium (colon epithelium): 15%

potency of PDE5 inhibitor activity relative to sildenafil (VASP phosphorylation) (PDE5): equally potent as the parent compound
Compound: acetyl-sildenafil

From US12662485B2, “Substituted pyrazolo[4,3-D]pyrimidines as gut-targeted phosphodiesterase inhibitors” (priority 2020, dated 2026)
